These results are taken from patent US4775676A, “Thiazolidine derivatives, process for their preparation and pharmaceutical compositions” (Chiesi Farmaceutici S.p.A., priority 1985, dated 1988).

For data set [1], the system named is porcine gastric mucine. The experiment in a line: "In vitro" mucolytic activity (viscoelasticity of porcine gastric mucine). The class given is biochemical. Conditions: 6% porcine gastric mucine, 25° C., 30 minutes, 0.075 Hz, versus control. Here is the method: "In vitro" mucolytic activity
Control samples were similarly added with the vehicle only. After incubation at 25° C. for 30 minutes, the analysis of the rheologic characteristics was carried out by means of Contraves Low-Shear 30 sinus viscosimeter provided with an oscillating device for the study of the viscoelasticity. The dynamic measurements of the viscoelasticity were carried out at a single frequency (0.075 Hz), using an appropriate concentrical cylinder measurement system, particularly suited for bronchial mucus (Contraves MS-LS 1-1).
The rheogramm was recorded on X/Y Rikadenki 11T recorder and the […] determination was carried out by means of vectorial calculation.
The percent decreases versus control samples, reported in Table 1, were determined from the means of the values of said parameters (at least 7 replications per sample).

For data set [2], the system named is respiratory tract. Nature of the data set: Mucosecretodynamic activity, "in vivo" fluorescein test. Also on record: species or system male IVA-NMRI (SPF) mice. Conditions: mice, p.o., 90 minutes before i.v. fluorescein, increase of fluorescein excretion; for ED50: Mus musculus, po. On the procedure:
Mucosecretodynamic activity
Male IVA-NMRI (SPF) mice, housed for at least 1 week under standard conditions, fasted (water ad libitum) for 18 hours before treatment, were used.
The compounds, dissolved or suspended in 20 ml/kg of a 0.2% Tween® 80 aqueous suspension, were administred orally 90 minutes before the intravenous injection of 1% (5 ml/kg) fluorescein. Animals treated p.o. with the only vehicle were used as a control group. After 30 minutes from the fluorescein injection the animals were killed and subjected to incannulation of the trachea. Then the respiratory tract was washed and the spectrophotometric dosage of the fluorescein was carried out against phosphate buffer on the so collected eluate, suitably diluted with phosphate buffer and centrifugated.
The amount of fluorescein was determined by means of a calibration curve prepared under the same experimental conditions and the excretion was expressed as ng/hour/10 g body weight. For each experimental session the percent increases of excretion versus controls were calculated.

Data set [3] relates to mice. Nature of the data set: Toxicity after single administration. The class given is in vivo. Conditions: p.o., death-rate after 7 days. Here is the method:
(§1) Toxicity after single administration
(§2) IVA:NMRI (SPF) mice, fasted for 18 hours before treatment with water ad libitum, were used. The compounds, dissolved or suspended in a 0.2% Tween® 80 aqueous solution, were administered orally, at constant concentration (10%). According to the death-rate observed after 7 days from treatment, the approximate LD50 values, reported in Table 1, were interpolated on Probi ts chart.

The nature of data set [4]: Toxicity after single administration. Particulars: mouse, in vivo, po, mice, p.o., death-rate after 7 days, read-out: Acute toxicity LD50 approx. The class given is in vivo. Here is the method:
as §1, §2

Counter-ions that a name gives are not always drawn.

“4-methyl-2-[(3-thiazolidyl)carbonyl]-cyclohexane-carboxylic acid lysine salt [Compound 11]”: in data set [1], the “"in vitro" % decrease elasticity (G')” value is 6% and the “"in vitro" % decrease viscosity (.eta.)” value came to 9%. The “"in vivo" fluorescein test ED50” value in data set [2] was determined as 300 mg/kg. For the same compound, in data set [3], the “Acute toxicity LD50 approx.” value is given as above 4000 mg/kg.

For the compound `CCC1SCCN1C(=O)C1C2C=CC(C2)C1C(=O)O` (centres unmarked) [Compound 2, 3-[3-[(2-Ethyl)-thiazolidine]carbonyl]-bicyclo-[2,2,1]-hepta-5-ene-2-carboxylic acid], in data set [1], the “"in vitro" % decrease elasticity (G')” value is 33% and the “"in vitro" % decrease viscosity (.eta.)” value amounted to 58%. In addition, the LD50 (in general, the dose expected to kill half of the subjects tested) at 168 h in data set [4] is around 3000 mg/kg.

`O=C(O)C1C2C=CC(C2)C1C(=O)N1CCSC1` (centres unmarked) [Compound 3, 3-[(3-thiazolidyl)-carbonyl]-bicyclo-[2,2,1]-hepta-5-ene-2-carboxylic acid]: the ED50 (commonly the dose that gives a 50% effect, or the effect in half of the subjects) in data set [2] was found to be 170 mg/kg. For the same compound, the LD50 at 168 h in data set [4] was around 1500 mg/kg.

With `O=C(O)CCC(=O)N1CCSC1` [Compound 4, 4-oxo-4-(3-thiazolidyl)-butanoic acid], the LD50 at 168 h in data set [4] is around 4000 mg/kg.

Take `O=C(CCC(=O)N1CCSC1)N1CCSC1` [Compound 7, 1,4-Bis-(3-thiazolidyl)-1,4-dioxo-butane]: in data set [2], the ED50 is around 750 mg/kg. Moreover, the LD50 at 168 h in data set [4] is around 3000 mg/kg.

Take `N[C@@H](CSCC(=O)N1CCSC1)C(=O)O` [Compound 8, 2-Amino-3-[[(3-thiazolidyl)-carbonylmethyl]thio]propionic acid]: in data set [4], the LD50 at 168 h was above 4000 mg/kg.

For `CC(SCC(=O)N1CCSC1)C(=O)NCC(=O)O` (centres unmarked) [Compound 9, 2-[2-[(3-thiazolidyl)carbonylmethylthio]-propionamide]acetic acid], in data set [1], the “"in vitro" % decrease elasticity (G')” value is recorded as 21% and the “"in vitro" % decrease viscosity (.eta.)” value is listed as 40%. In addition, the LD50 at 168 h in data set [4] is above 4000 mg/kg.

Regarding `O=C(O)CCC(=O)N1CCSC1` [Compound 10, 4-oxo-4-(3-thiazolidyl)butanoic acid sodium salt], in data set [3] (sodium salt, 10080 min), the “Acute toxicity LD50 approx.” value was above 4000 mg/kg.

Turning to `CC1(C(=O)N2CCSC2)CCC(C(=O)O)C1(C)C` (centres unmarked) [Compound 12, -3-[(3-thiazolidyl)-carbonyl]-2,2,3-trimethyl-cyclopentanecarboxylic acid lysine salt], in data set [1], the “"in vitro" % decrease elasticity (G')” value turned out to be 13% and the “"in vitro" % decrease viscosity (.eta.)” value stood at 0%. In data set [2], this compound gave an ED50 of 310 mg/kg. In addition, the 50% lethal dose (LD50) at 168 h in data set [4] is above 4000 mg/kg.

For the compound `CC(=O)N[C@@H](CS)C(=O)O` [N-acetyl-L-cysteine, N--acetyl-L-cysteine, reference compound], in data set [1], the “"in vitro" % decrease elasticity (G')” value amounted to 39% and the “"in vitro" % decrease viscosity (.eta.)” value came to 53%.
